Measurements: patent US8546381B2, “Bridged heterocyclic compounds and methods of use” (Medivation Technologies, Inc., priority 2008, dated 2013)

Experiments:
[1] = molecular target: T1, human recombinant adrenergic α1D receptor (Homo sapiens, UniProt P25100); assay: Adrenergic α1D radioligand binding ([3H]Prozosin); conditions: 1 μM; read-out: Adrenergic α1D, inhibition of ligand binding (1 μM)
T1 construct: expressed in transfected cells; host or cells: HEK-293 cells
T1 sequence (P25100 1-572): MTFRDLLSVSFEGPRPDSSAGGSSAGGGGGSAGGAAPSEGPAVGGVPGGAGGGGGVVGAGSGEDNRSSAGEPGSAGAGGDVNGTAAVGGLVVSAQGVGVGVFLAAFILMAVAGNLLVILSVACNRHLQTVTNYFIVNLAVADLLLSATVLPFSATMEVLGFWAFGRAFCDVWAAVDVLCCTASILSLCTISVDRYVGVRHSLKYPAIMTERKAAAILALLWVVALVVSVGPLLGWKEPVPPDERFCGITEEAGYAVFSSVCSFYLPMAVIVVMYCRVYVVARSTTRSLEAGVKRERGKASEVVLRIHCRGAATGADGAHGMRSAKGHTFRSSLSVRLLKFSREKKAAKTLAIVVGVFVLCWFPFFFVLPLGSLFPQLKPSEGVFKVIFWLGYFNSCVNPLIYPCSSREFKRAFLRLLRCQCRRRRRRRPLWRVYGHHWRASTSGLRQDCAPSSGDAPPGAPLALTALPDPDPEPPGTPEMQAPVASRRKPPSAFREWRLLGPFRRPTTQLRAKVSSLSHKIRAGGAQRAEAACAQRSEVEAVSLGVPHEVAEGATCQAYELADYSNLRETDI
Procedure: To evaluate in radioligand binding assays the activity of compounds of the invention, human recombinant adrenergic α1D receptor expressed in human embryonic kidney (HEK-293) cells (Kenny, B. A. et al. Br. J. Pharmacol. 115(6):981, 1995) in a 50 mM Tris-HCl buffer, pH 7.4, was used. Compounds of invention were incubated with 0.6 nM [^3H]Prozosin for 60 minutes at 25° C. Non-specific binding was estimated in the presence of 10 μM phentolamine. Receptor proteins were filtered and washed, the filters were then counted to determine [^3H]Prozosin specifically bound. Compounds were screened at 1 μM or lower, using 1% DMSO as vehicle. Biochemical assay results are presented as the percent inhibition of specific binding in Table 3.

[2] = molecular target: T2, human recombinant serotonin (5-Hydroxytryptamine) 5-HT2C receptor (Homo sapiens, UniProt P28335); assay: Serotonin 5-HT2C radioligand binding ([3H]Mesulergine); conditions: read-out: Serotonin 5-HT2C, inhibition of ligand binding (1 μM)
T2 construct: expressed in transfected cells; host or cells: CHO-K1 cells
T2 sequence (P28335 33-458): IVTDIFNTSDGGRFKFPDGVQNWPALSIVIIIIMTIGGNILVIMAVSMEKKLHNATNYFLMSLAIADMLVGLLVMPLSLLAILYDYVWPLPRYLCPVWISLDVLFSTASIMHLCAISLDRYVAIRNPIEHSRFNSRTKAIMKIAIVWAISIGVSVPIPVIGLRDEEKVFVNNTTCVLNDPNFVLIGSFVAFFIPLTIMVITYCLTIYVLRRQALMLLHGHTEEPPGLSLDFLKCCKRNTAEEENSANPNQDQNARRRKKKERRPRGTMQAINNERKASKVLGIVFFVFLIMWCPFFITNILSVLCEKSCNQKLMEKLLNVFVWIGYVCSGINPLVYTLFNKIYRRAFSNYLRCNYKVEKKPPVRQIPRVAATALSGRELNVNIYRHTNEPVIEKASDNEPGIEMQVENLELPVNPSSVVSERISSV
Outline: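 Membranes from CHO-K1 cells expressing the human receptor were incubated 60 min at 25 °C with 1 nM [3H]mesulergine in 50 mM Tris-HCl pH 7.4 with ascorbic acid and 10 μM pargyline. Compounds were tested at 1 μM or lower in 1% DMSO, with 1 μM mianserin defining non-specific binding. After filtration, values are % inhibition of specific binding.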

[3] = molecular target: T3, human recombinant histamine H1 receptor (Homo sapiens, UniProt P35367); assay: Histamine H1 radioligand binding ([3H]Pyrilamine); conditions: compound at 1 μM; inhibition of specific [3H]Pyrilamine binding; read-out: Histamine Binding (1 μM) H1, Percentage Inhibition
T3 construct: expressed in transfected cells; host or cells: CHO cells
T3 sequence (P35367 whole entry): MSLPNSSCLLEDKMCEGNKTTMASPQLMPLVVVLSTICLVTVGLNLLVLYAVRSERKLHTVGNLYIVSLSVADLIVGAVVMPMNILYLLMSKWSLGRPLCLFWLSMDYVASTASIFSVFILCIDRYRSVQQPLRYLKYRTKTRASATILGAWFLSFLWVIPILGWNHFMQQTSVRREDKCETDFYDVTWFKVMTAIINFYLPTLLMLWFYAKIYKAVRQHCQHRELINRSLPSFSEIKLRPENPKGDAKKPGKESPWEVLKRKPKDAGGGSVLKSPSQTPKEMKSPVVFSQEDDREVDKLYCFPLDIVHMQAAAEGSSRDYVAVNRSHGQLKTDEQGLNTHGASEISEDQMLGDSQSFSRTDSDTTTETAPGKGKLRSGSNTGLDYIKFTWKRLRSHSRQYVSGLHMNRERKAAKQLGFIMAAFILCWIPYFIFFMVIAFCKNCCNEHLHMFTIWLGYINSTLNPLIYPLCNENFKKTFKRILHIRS
Outline: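 Membranes from CHO cells expressing human H1 receptor were incubated with 1.2 nM [3H]pyrilamine for 180 min at 25° C in Tris-HCl buffer pH 7.4. Non-specific binding defined with 1 μM pyrilamine; compounds tested at 1 μM or lower in 1% DMSO. Results are given as % inhibition of specific binding.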

[4] = molecular target: T4, human recombinant histamine H2 receptor (Homo sapiens, UniProt P25021); assay: Histamine H2 radioligand binding ([125I]Aminopotentidine); conditions: compound at 1 μM; inhibition of specific [125I]Aminopotentidine binding; read-out: Histamine Binding (1 μM) H2, Percentage Inhibition
T4 construct: expressed in transfected cells; host or cells: CHO-K1 cells
T4 sequence (P25021 whole entry): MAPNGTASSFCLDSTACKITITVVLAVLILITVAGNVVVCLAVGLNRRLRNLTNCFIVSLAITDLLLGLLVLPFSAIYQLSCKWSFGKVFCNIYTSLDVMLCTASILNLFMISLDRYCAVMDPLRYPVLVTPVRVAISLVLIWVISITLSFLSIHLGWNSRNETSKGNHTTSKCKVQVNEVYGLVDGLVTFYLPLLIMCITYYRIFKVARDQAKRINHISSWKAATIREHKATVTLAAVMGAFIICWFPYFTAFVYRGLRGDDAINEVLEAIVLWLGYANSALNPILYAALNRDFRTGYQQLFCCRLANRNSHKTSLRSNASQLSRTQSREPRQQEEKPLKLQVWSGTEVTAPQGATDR
Outline: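 CHO-K1 membranes expressing the receptor were incubated in 50 mM phosphate buffer, pH 7.4, with 0.1 nM [125I]aminopotentidine for 120 min at 25°C; 3 μM tiotidine defined non-specific binding.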

SMILES	inhibition at 1 µM [1] [%]	inhibition at 1 µM [2] [%]	inhibition at 1 µM [3] [%]	inhibition at 1 µM [4] [%]
CN1[C@@H]2CC[C@H]1c1c(n(CC(=O)N3CCCCC3)c3ccccc13)C2 [Compound 101]	74	94	48	19
Cc1ccc(CCn2c3c(c4ccccc42)[C@@H]2CC[C@H](C3)N2C)cn1 [Compound 102]	1	-6	52	3
Cc1ccc2c(c1)c1c(n2CCC#N)CC2CCC1N2C (stereo not drawn) [Compound 103]	86	33	85	1
CN1C2CCC1c1c(n(CCC#N)c3ccc(Cl)cc13)C2 (stereo not drawn) [Compound 107]	47	25	72	-4
CN1C2CCC1c1c(n(CC(=O)c3ccccc3)c3ccc(Cl)cc13)C2 (stereo not drawn) [Compound 110]	40	62	36	27
CN1C2CCC1c1c(n(CC(=O)c3ccc(Cl)cc3)c3ccc(Cl)cc13)C2 (stereo not drawn) [Compound 111]	40	81	66	33
Cc1ccc2c(c1)c1c(n2CCc2nc(-c3ccccc3)cs2)CC2CCC1N2C (stereo not drawn) [Compound 114]	68	59	93	10
C/C(=C\n1c2c(c3cc(C)ccc31)C1CCC(C2)N1C)c1ccc(Cl)cc1 (stereo not drawn) [Compound 116]	40	97	23	81
C/C(=C/n1c2c(c3ccccc31)[C@@H]1CC[C@H](C2)N1C)c1ccc(F)cc1 [Compound 121]	80	88	17	21
C/C(=C\n1c2c(c3cc(Cl)ccc31)C1CCC(C2)N1C)c1ccc(F)cc1 (stereo not drawn) [Compound 123]	79	95	62	93
C/C(=C\n1c2c(c3cc(C)ccc31)C1CCC(C2)N1C)c1ccc(F)cc1 (stereo not drawn) [Compound 124]	67	86	31	79
C/C(=C\n1c2c(c3cc(Cl)ccc31)C1CCC(C2)N1C)c1ccc(Cl)cc1 (stereo not drawn) [Compound 125]	54	99	82	96
COc1ccc(/C(C)=C/n2c3c(c4cc(Cl)ccc42)C2CCC(C3)N2C)cc1F (stereo not drawn) [Compound 136]	61	100	69	100
CN1C2CCC1c1c(n(C#Cc3ccc(F)cc3)c3ccc(Cl)cc13)C2 (stereo not drawn) [Compound 138]	60	97	57	70
Cc1ccc(C#Cn2c3c(c4cc(Cl)ccc42)C2CCC(C3)N2C)cn1 (stereo not drawn) [Compound 139]	65	93	57	34
Cc1ccc2c(c1)c1c(n2C#Cc2ccc(F)cc2)CC2CCC1N2C (stereo not drawn) [Compound 141]	20	89	2	25
CN1C2CCC1c1c(n(C#Cc3ccc(Cl)cc3)c3ccc(Cl)cc13)C2 (stereo not drawn) [Compound 142]	27	100	34	71
COc1ccc(C(C)(O)Cn2c3c(c4cc(Cl)ccc42)C2CCC(C3)N2C)cc1F (stereo not drawn) [Compound 160]	0	93	86	22
COc1ccc(C(C)(O)Cn2c3c(c4cc(C)ccc42)C2CCC(C3)N2C)cc1F (stereo not drawn) [Compound 161]	30	92	84	20
Cc1ccc2c(c1)c1c(n2C(=O)Cc2ccc(Cl)cc2)CC2CCC1N2C (stereo not drawn) [Compound 162]	34	93	0	47
C/C(=C\n1c2c(c3cc(C)ccc31)C1CCC(C2)N1C)c1ccc(Cl)cc1Cl (stereo not drawn) [Compound 163]	53	94	72	66
